# Results as given in patent US20260116921A1, “PEPTIDE INHIBITORS OF INTERLEUKIN-23 RECEPTOR AND THEIR USE TO TREAT INFLAMMATORY DISEASES” (priority 2018, published 2026).
# Numbered stars: 1 amine (or outer) side, 2 acyl side, 3 side chain; on linkers, the order of the positions; unused ones are H or OH. Bridge positions count the residues as written; N and C are the ends. Square brackets hold non-standard residues; d marks the D form. Peptide text beside a SMILES is read from it. Trp(7-Me) = Cc1cccc2c(C[C@H](N)C(=O)O)c[nH]c12; Abu(4-yl) = O=C([C@H](CC[*:3])N[*:1])[*:2]; 2Nal = N[C@@H](Cc1ccc2ccccc2c1)C(=O)O; AEF = NCCOc1ccc(C[C@H](N)C(=O)O)cc1; αMeK = C[C@](N)(CCCCN)C(=O)O; Sar = CNCC(=O)O
# Target: T1, IL-23R (Homo sapiens, UniProt Q5VWK5)
# T1 sequence (Q5VWK5 24-629): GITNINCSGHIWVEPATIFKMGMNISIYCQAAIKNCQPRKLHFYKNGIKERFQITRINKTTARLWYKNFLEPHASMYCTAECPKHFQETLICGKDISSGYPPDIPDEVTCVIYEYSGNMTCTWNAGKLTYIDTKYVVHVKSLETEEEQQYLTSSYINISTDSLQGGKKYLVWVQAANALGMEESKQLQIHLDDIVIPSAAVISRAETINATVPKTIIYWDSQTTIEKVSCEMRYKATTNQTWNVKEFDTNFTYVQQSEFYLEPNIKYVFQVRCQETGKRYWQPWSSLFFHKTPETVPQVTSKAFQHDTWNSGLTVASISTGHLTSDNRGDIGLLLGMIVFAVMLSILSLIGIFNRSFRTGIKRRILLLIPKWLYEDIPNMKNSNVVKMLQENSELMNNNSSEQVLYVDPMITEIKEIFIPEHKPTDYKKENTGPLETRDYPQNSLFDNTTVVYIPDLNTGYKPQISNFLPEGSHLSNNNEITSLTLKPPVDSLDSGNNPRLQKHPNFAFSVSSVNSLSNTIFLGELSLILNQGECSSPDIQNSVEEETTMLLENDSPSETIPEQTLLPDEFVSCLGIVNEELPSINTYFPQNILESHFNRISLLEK
# Experiment: DB cells IL23R pSTAT3 cell assay (pStat3 HTRF)
# Assay type: cell-based
# Conditions: not given
# Excerpt: Human ELISA indicates the IL23-IL23R competitive binding assay described below, Rat ELISA indicates the rat IL-23R competitive binding ELISA assay described below, and pStat3HTRF indicates the DB cells IL-23R pSTAT3 cell assay described below. The peptides depicted in Table E1 are cyclized via a disulfide bridge formed between two Pen residues in these peptides. The peptides depicted in Table E2 are cyclized via a thioether bond between the indicated amino acid residues. Table E2 provides an illustrative structure depicting thioether cyclization, which is indicated in the table by the term “cyclo,” with the cyclic region bracketed immediately following the term “cyclo.” For certain peptides, the residue Abu is present where indicated, whereas in other embodiments, e.g., those related to the non-cyclized form, the Abu may be referred to as a hSer(Cl) or homoSer residue.
# DB Cells IL23R pSTAT3 Cell Assay
# IL-23 plays a central role in supporting and maintaining Th17 differentiation in vivo. This process is thought to be mediated primarily through the Signal Transducer and Activator of Transcription 3 (STAT3), with phosphorylation of STAT3 (to yield pSTAT3) leading to upregulation of RORC and pro-inflammatory IL-17. This cell assay examines the levels of pSTAT3 in IL-23R-expressing DB cells when stimulated with IL-23 in the presence of test compounds. Serial dilutions of test peptides and IL-23 (Humanzyme #HZ-1261) at a final concentration of 0.5 nM, were added to each well in a 96 well tissue culture plate (Corning #CLS3894). DB cells (ATCC #CRL-2289), cultured in RPMI-1640 medium (Thermo Scientific #11875093) supplemented with 10% FBS, were added at 5×10E5 cells/well and incubated for 30 minutes at 37° C. in a 5% CO2 humidified incubator. Changes in phospho-STAT3 levels in the cell lysates were detected using the Cisbio HTRF pSTAT3 (Tyr705) Cellular Assay Kit (Cisbio #62AT3PEH), according to manufacturer's Two Plate Assay protocol.
row,Structure (SMILES),IC50 [nM]
1,CC(=O)NCCCC[C@H](NC(=O)[C@](C)(CC(C)C)NC(=O)[C@H](Cc1c[nH]c2c(C)cccc12)NC(=O)[C@H](Cc1ccc(OCCN)cc1)NC(=O)[C@H]1NC(=O)[C@H](CCC(N)=O)NC(=O)[C@H](Cc2c[nH]c3ccccc23)NC(=O)[C@H]([C@@H](C)O)NC(=O)[C@H](CC(N)=O)NC(=O)[C@@H](NC(C)=O)C(C)(C)SSC1(C)C)C(=O)N[C@@H](CC(N)=O)C(=O)N[C@@H](CC(N)=O)C(N)=O [compound 17],10 to 100
2,CC(=O)NCCCC[C@H](NC(=O)[C@](C)(CC(C)C)NC(=O)[C@H](Cc1c[nH]c2ccc(F)cc12)NC(=O)[C@H](Cc1ccc(OCCN)cc1)NC(=O)[C@H]1NC(=O)[C@H](CCC(N)=O)NC(=O)[C@H](Cc2c[nH]c3ccccc23)NC(=O)[C@H]([C@@H](C)O)NC(=O)[C@H](CC(N)=O)NC(=O)[C@@H](NC(C)=O)C(C)(C)SSC1(C)C)C(=O)N[C@@H](CC(N)=O)C(=O)N[C@@H](CC(N)=O)C(N)=O [compound 18],10 to 100
3,CC(=O)NCCCC[C@H](NC(=O)[C@](C)(CC(C)C)NC(=O)[C@H](Cc1c[nH]c2c(F)cccc12)NC(=O)[C@H](Cc1ccc(OCCN)cc1)NC(=O)[C@H]1NC(=O)[C@H](CCC(N)=O)NC(=O)[C@H](Cc2c[nH]c3ccccc23)NC(=O)[C@H]([C@@H](C)O)NC(=O)[C@H](CC(N)=O)NC(=O)[C@@H](NC(C)=O)C(C)(C)SSC1(C)C)C(=O)N[C@@H](CC(N)=O)C(=O)N[C@@H](CC(N)=O)C(N)=O [compound 19],10 to 100
4,COc1ccc2[nH]cc(C[C@H](NC(=O)[C@H](Cc3ccc(OCCN)cc3)NC(=O)[C@H]3NC(=O)[C@H](CCC(N)=O)NC(=O)[C@H](Cc4c[nH]c5ccccc45)NC(=O)[C@H]([C@@H](C)O)NC(=O)[C@H](CC(N)=O)NC(=O)[C@@H](NC(C)=O)C(C)(C)SSC3(C)C)C(=O)N[C@@](C)(CC(C)C)C(=O)N[C@@H](CCCCNC(C)=O)C(=O)N[C@@H](CC(N)=O)C(=O)N[C@@H](CC(N)=O)C(N)=O)c2c1 [compound 20],10 to 100
5,CC(=O)NCCCC[C@H](NC(=O)[C@](C)(CC(C)C)NC(=O)[C@H](Cc1c[nH]c2ccc(O)cc12)NC(=O)[C@H](Cc1ccc(OCCN)cc1)NC(=O)[C@H]1NC(=O)[C@H](CCC(N)=O)NC(=O)[C@H](Cc2c[nH]c3ccccc23)NC(=O)[C@H]([C@@H](C)O)NC(=O)[C@H](CC(N)=O)NC(=O)[C@@H](NC(C)=O)C(C)(C)SSC1(C)C)C(=O)N[C@@H](CC(N)=O)C(=O)N[C@@H](CC(N)=O)C(N)=O [compound 21],> 100
6,CC(=O)NCCCC[C@H](NC(=O)[C@](C)(CC(C)C)NC(=O)[C@H](Cc1c[nH]c2ccc(Br)cc12)NC(=O)[C@H](Cc1ccc(OCCN)cc1)NC(=O)[C@H]1NC(=O)[C@H](CCC(N)=O)NC(=O)[C@H](Cc2c[nH]c3ccccc23)NC(=O)[C@H]([C@@H](C)O)NC(=O)[C@H](CC(N)=O)NC(=O)[C@@H](NC(C)=O)C(C)(C)SSC1(C)C)C(=O)N[C@@H](CC(N)=O)C(=O)N[C@@H](CC(N)=O)C(N)=O [compound 22],1 to 10
7,CC(=O)NCCCC[C@H](NC(=O)C1(NC(=O)[C@H](Cc2ccc3ccccc3c2)NC(=O)[C@H](Cc2ccc(OCCN)cc2)NC(=O)[C@@H]2CSCC[C@H](NC(C)=O)C(=O)N[C@@H](CCC(N)=O)C(=O)N[C@@H]([C@@H](C)O)C(=O)N[C@@H](Cc3c[nH]c4c(C)cccc34)C(=O)N[C@@H](CCC(N)=O)C(=O)N2)CCOCC1)C(=O)N[C@@H](CC(N)=O)C(=O)N[C@@H](CC(N)=O)C(N)=O [compound 30],1 to 10
8,CCCCCCCC(=O)NCCCC[C@@H]1NC(=O)[C@H](Cc2c[nH]c3c(C)cccc23)NC(=O)[C@H]([C@@H](C)O)NC(=O)[C@H](CC(N)=O)NC(=O)[C@@H](NC(C)=O)C(C)(C)SSC(C)(C)[C@@H](C(=O)N[C@@H](Cc2ccc(OCCN)cc2)C(=O)N[C@@H](Cc2ccc3ccccc3c2)C(=O)N[C@@](C)(CCCCN)C(=O)N[C@@H](CCCCNC(C)=O)C(=O)N[C@@H](CC(N)=O)C(=O)N[C@H](CC(C)C)C(N)=O)NC1=O [compound 317],1 to 10

# Same assay, conditions: Table E3; DB cells, IL-23 0.5 nM, 30 minutes at 37° C.; read-out: pStat3 HTRF (IC50)
row,IC50 [nM],Structure (SMILES)
1,1 to 10,CC(=O)N[C@H](CCCNC(=N)N)C(=O)N[C@H]1CCSC[C@@H](C(=O)N[C@@H](Cc2ccc(OCCN)cc2)C(=O)N[C@@H](Cc2ccc3ccccc3c2)C(=O)NC2(C(=O)N[C@@H](CCC(=O)O)C(=O)N[C@@H](CC(N)=O)C(=O)NCCC(N)=O)CCOCC2)NC(=O)[C@H](CCC(N)=O)NC(=O)[C@H](Cc2c[nH]c3c(C)cccc23)NC(=O)[C@H]([C@@H](C)O)NC(=O)[C@H](CCC(N)=O)NC1=O [compound 203]
2,1 to 10,CC(=O)NCCCC[C@H](NC(=O)[C@](C)(CCCCN)NC(=O)[C@H](Cc1ccc2ccccc2c1)NC(=O)[C@H](Cc1ccc(OCCN)cc1)NC(=O)[C@H]1NC(=O)[C@H](CCC(N)=O)NC(=O)[C@H](Cc2c[nH]c3ccc(C#N)cc23)NC(=O)[C@H]([C@@H](C)O)NC(=O)[C@H](CC(N)=O)NC(=O)[C@@H](NC(C)=O)C(C)(C)SSC1(C)C)C(=O)N[C@@H](CC(N)=O)C(=O)N[C@H](CCCCN)C(N)=O [compound 296]
3,1 to 10,COc1cccc2c(C[C@@H]3NC(=O)[C@H]([C@@H](C)O)NC(=O)[C@H](CC(N)=O)NC(=O)[C@@H](NC(C)=O)C(C)(C)SSC(C)(C)[C@@H](C(=O)N[C@@H](Cc4ccc(OCCN)cc4)C(=O)N[C@@H](Cc4ccc5ccccc5c4)C(=O)N[C@@](C)(CCCCN)C(=O)N[C@@H](CCCCNC(C)=O)C(=O)N[C@@H](CC(N)=O)C(=O)N[C@H](CCCCN)C(N)=O)NC(=O)[C@H](CCC(N)=O)NC3=O)c[nH]c12 [compound 297]
4,1 to 10,COc1cccc2c(C[C@@H]3NC(=O)[C@H]([C@@H](C)O)NC(=O)[C@H](CC(N)=O)NC(=O)[C@@H](NC(C)=O)C(C)(C)SSC(C)(C)[C@@H](C(=O)N[C@@H](Cc4ccc(OCCN)cc4)C(=O)N[C@@H](Cc4ccc5ccccc5c4)C(=O)N[C@@](C)(CCCCN)C(=O)N[C@@H](CCCCNC(C)=O)C(=O)N[C@@H](CC(N)=O)C(=O)N[C@H](CCCCN)C(N)=O)NC(=O)[C@H](CCCCNC(C)=O)NC3=O)c[nH]c12 [compound 299]
5,1 to 10,CC(=O)NCCCC[C@H](NC(=O)[C@](C)(CCCCN)NC(=O)[C@H](Cc1ccc2ccccc2c1)NC(=O)[C@H](Cc1ccc(OCCN)cc1)NC(=O)[C@H]1NC(=O)[C@H](CCCCNC(=O)[C@H](C)N)NC(=O)[C@H](Cc2c[nH]c3c(C)cccc23)NC(=O)[C@H]([C@@H](C)O)NC(=O)[C@H](CC(N)=O)NC(=O)[C@@H](NC(C)=O)C(C)(C)SSC1(C)C)C(=O)N[C@@H](CC(N)=O)C(=O)N[C@H](CC(C)C)C(N)=O [compound 314]
6,< 1,CC(=O)NCCCC[C@H](NC(=O)[C@](C)(CCCCN)NC(=O)[C@H](Cc1ccc2ccccc2c1)NC(=O)[C@H](Cc1ccc(OCCN)cc1)NC(=O)[C@H]1NC(=O)[C@H](CCCCNC(=O)CC(F)(F)F)NC(=O)[C@H](Cc2c[nH]c3c(C)cccc23)NC(=O)[C@H]([C@@H](C)O)NC(=O)[C@H](CC(N)=O)NC(=O)[C@@H](NC(C)=O)C(C)(C)SSC1(C)C)C(=O)N[C@@H](CC(N)=O)C(=O)N[C@H](CC(C)C)C(N)=O [compound 319]
7,1 to 10,CC(=O)NCCCC[C@@H]1NC(=O)[C@H](Cc2c[nH]c3c(C)cccc23)NC(=O)[C@H]([C@@H](C)O)NC(=O)[C@H](CCC(N)=O)NC(=O)[C@@H](NC(=O)[C@@H](CCCNC(=N)N)NC(C)=O)CCSC[C@@H](C(=O)N[C@@H](Cc2ccc(OCCN)cc2)C(=O)N[C@@H](Cc2ccc3ccccc3c2)C(=O)N[C@@](C)(CCCCN)C(=O)N[C@@H](CCCCNC(C)=O)C(=O)N[C@@H](CC(N)=O)C(=O)N[C@H](CCCCN)C(=O)N(C)CC(N)=O)NC1=O [compound 323] (Ac-[dR][Abu(4-yl)]QT[Trp(7-Me)]K(Ac)C[AEF][2Nal][αMeK]K(Ac)N[dK][Sar]-NH2; thioether 2-7)
